Assay results published in patent US20240261253A1, “DAUR[…] AND IT'S USE IN MEDICINE” (Phytotherapeutix Ltd., priority 2021, published 2024).
Converted amounts (≈) assume the structure as drawn. Like-named read-outs stand apart in the source and are kept apart here.

Legend:
[1] = cytotoxicity (cell viability) in 16HBE cells; assay type: cell-based; conditions: human, read-out: CC50 (50% cell viability)
Experimental: (§1) A dilution series of each test compound (8-point, 10-fold dose titration) was added prophylactically for one hour, to cells. Cells were infected with virus for one hour, at a single concentration (100×TCID50 (Median Tissue Culture Infectious Dose). Additional media was added to the wells, with equivalent concentrations of compound added in for the duration of the study. Vehicle and positive control wells were set up to control for any influence of the compounds alone on cell viability. Cells were visually inspected for the appearance of any cytopathic effects (CPE). A cell viability assay was performed once CPE was complete.
(§2) • EC50: The concentration which results in 50% viral inhibition, following the addition of compounds. • CC50: The concentration which results in 50% cell viability, following the addition of compounds.
(§3) • 1. Cells permissible to infection, indicated in the Conditions Table, were grown and seeded into 96-well plates to a confluency of 80-90%. • 2. The test compounds were serially diluted 10-fold into 8 concentrations in total. The serial dilution was added to the cells for 1 hour prior to infection with each virus. Positive control compounds were included using the same treatment regimen. • 3. After pre-treatment, each virus was added to the cells for 1 h at 100×TCID50. A mock infection of blank media was added to the uninfected controls. • 4. After infection, the virus/media was removed and an overlay medium was added, with equivalent concentrations of the test compounds added in. • 5. […] A cell viability assay was performed on all conditions, with cells receiving the test treatment compared to the vehicle treated and uninfected controls.

16HBE cells = assay: cytotoxicity (cell viability) in 16HBE cells; assay type: cell-based; conditions: 5 days
Experimental: as §1, §2, §3

[2] = cytotoxicity (cell viability) in H292 cells; assay type: cell-based; conditions: human, read-out: CC50 (50% cell viability)
Experimental: as §1, §2, §3

H292 cells = assay: cytotoxicity (cell viability) in H292 cells; assay type: cell-based; conditions: 5 days
Experimental: as §1, §2, §3

Human Coronavirus OC43 = assay: inhibition of HCoV OC43 infection in H292 cells (CPE/cell viability assay); assay type: cell-based, Human Coronavirus OC43 (Beta); conditions: for efficacy against HCoV OC43: H292 cells
Experimental: as §1
(§4) Inhibition was calculated as follows: […]
(§5) where: • A: mean optical density of test, • B: mean optical density of virus controls, • C: mean optical density of cell controls. • Negative values occur when A<B, due either to natural variation or compound toxicity.
as §2, §3

HIV = conditions: cited from earlier work
uninfected H9 cells = conditions: cited from earlier work
[3] = 5 mg/kg i.p., rodents; cited from earlier work
Human Coronavirus 229E = assay: inhibition of HCoV 229E infection in 16HBE cells (CPE/cell viability assay); assay type: cell-based, Human Coronavirus 229E (Alpha)
Experimental: as §1, §4, §5, §2
• 1. Cells permissible to infection, indicated in the Conditions Table, were grown and seeded into 96-well plates to a confluency of 80-90%. • 2. The test compounds were serially diluted 10-fold into 8 concentrations in total. […]

Structure (SMILES): CC(C)=CCC/C(C)=C/CCC1(C)C=Cc2c(cc(C)c(C(=O)O)c2O)O1 (racemic) [1:1 mixture of (+)-DCA with (−)-DCA, (E)-2-(4,8-dimethylnona-3,7-dien-1-yl)-5-hydroxy-2,7-dimethyl-2H-chromene-6-carboxylic acid]
- CC50 at 5 days [1]: 8.2 µg/mL
- CC50 (50% cell viability) (16HBE cells): 8.225 µg/mL
- CC50 at 5 days [2]: 5.9 µg/mL
- CC50 (50% cell viability) (H292 cells): 5.938 µg/mL
- efficacy against HCoV OC43 (Human Coronavirus OC43; listed as 1:1 mix of both): Efficacy was seen

Structure (SMILES): CC(C)=CCC/C(C)=C/CCC1(C)C=Cc2c(cc(C)c(C(=O)O)c2O)O1 (stereo in doubt) [(−)-DCA, (−)-(2S)-2-[(3E)-4,8-dimethylnona-3,7-dienyl]-5-hydroxy-2,7-dimethylchromene-6-carboxylic acid]
- CC50 at 5 days [1]: 35.7 µg/mL (≈ 96.4 µM)
- CC50 at 5 days [2]: 15.1 µg/mL (≈ 40.8 µM)
- EC50 (Human Coronavirus OC43; Betacoronavirus 1, OC43, NCI-H292, 120 h, read-out: EC50 (50% viral inhibition), HCoV OC43, H292 cells, 5 days): 4.39 µg/mL
- efficacy against HCoV OC43 (Human Coronavirus OC43): Efficacy was seen
- EC50 (50% viral inhibition) (Human Coronavirus OC43; HCoV OC43, H292 cells, 5 days): 4.382 µg/mL (≈ 11.8 µM)

Structure (SMILES): CC(C)=CCC/C(C)=C/CC[C@@]1(C)C=Cc2c(cc(C)c(C(=O)O)c2O)O1 [(+)-DCA, (S,E)-2-(4,8-dimethylnona-3,7-dien-1-yl)-5-hydroxy-2,7-dimethyl-2H-chromene-6-carboxylic acid]
- CC50 at 5 days [1]: 20.7 µg/mL (≈ 55.9 µM)
- CC50 at 5 days [2]: 9.27 µg/mL (≈ 25 µM)
- efficacy against HCoV OC43 (Human Coronavirus OC43): Efficacy was seen
- anti-HIV activity EC50 (HIV; acutely infected H9 cells): 0.00567 µg/mL
- inhibition of uninfected H9 growth EC50 (uninfected H9 cells): 21.1 µg/mL

Structure (SMILES): CCCCCc1cc2c(c(O)c1C(=O)O)C=CC(C)(CCC=C(C)C)O2 (centres unmarked) [CBCA, 5-hydroxy-2-methyl-2-(4-methylpent-3-enyl)-7-pentylchromene-6-carboxylic acid]
- plasma Cmax [3]: approx. 4 μg/mL
- side effects [3]: without any major side effects

Structure (SMILES): CCC(CC)COC(=O)[C@H](C)N[P@](=O)(OC[C@H]1O[C@@](C#N)(c2ccc3c(N)ncnn23)[C@H](O)[C@@H]1O)Oc1ccccc1 [Remdesivir, reference compound]
- EC50 (Human Coronavirus 229E; 16HBE, read-out: EC50): 0.01 to 0.1 µM
- EC50 (Human Coronavirus 229E; 120 h, 16HBE cells, 5 days, read-out: EC50 (50% viral inhibition)): 0.023 µg/mL
- EC50 (Human Coronavirus OC43; Betacoronavirus 1, OC43, NCI-H292, 120 h, HCoV OC43, H292 cells, 5 days, read-out: EC50 (50% viral inhibition)): 0.029 µg/mL
- EC50 (Human Coronavirus OC43; Betacoronavirus 1, OC43, NCI-H292, HCoV OC43, read-out: EC50): 0.01 to 0.1 µM

Structure (SMILES): CC(C)=CCC[C@@]1(C)[C@@H]2CC[C@]3(C)Oc4cc(C)c(C(=O)O)c(O)c4[C@H]1[C@H]23 [Rhododaurichromanic acid A]
- anti-HIV activity EC50 (HIV; in vitro): 0.37 µg/mL

Structure (SMILES): CC(C)=CCC[C@]1(C)[C@@H]2CC[C@]3(C)Oc4cc(C)c(C(=O)O)c(O)c4[C@H]1[C@H]23 [Rhododaurichromanic acid B]
- anti-HIV activity (HIV; in vitro): no anti-HIV activity
